This passage reports EC50 results from US8309577B2, “Quinuclidine compounds as α-7 nicotinic acetylcholine receptor ligands” (Bristol-Myers Squibb Company, priority 2008, dated 2012).

The target of the first assay is T1, α-7 nicotinic acetylcholine receptor channel expressed in HEK 293 cells (Rattus norvegicus, UniProt Q05941).
T1 construct: expressed in transfected cells
T1 sequence (Q05941 23-502): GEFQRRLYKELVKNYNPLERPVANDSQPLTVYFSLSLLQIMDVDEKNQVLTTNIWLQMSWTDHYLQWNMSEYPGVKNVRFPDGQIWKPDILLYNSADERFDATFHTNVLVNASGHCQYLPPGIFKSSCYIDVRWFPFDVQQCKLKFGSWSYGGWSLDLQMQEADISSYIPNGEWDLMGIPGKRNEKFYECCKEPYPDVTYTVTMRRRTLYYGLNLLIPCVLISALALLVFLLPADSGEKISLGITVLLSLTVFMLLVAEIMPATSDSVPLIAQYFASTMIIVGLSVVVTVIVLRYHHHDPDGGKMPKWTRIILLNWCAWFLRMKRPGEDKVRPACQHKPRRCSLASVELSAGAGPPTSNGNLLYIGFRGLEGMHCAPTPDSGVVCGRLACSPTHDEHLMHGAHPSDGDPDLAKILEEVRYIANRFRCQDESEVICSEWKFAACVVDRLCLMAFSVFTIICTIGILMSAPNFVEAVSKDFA
Description: Ca2+-sensitive fluorescence-based FLIPR assay, α7 nicotinic ACh receptor channel function (agonist). The class given is cell-based. To be noted: FLIPR α7 (EC50, nM), Table Ib; HEK 293 cells, agonist Ca2+ flux. The procedure, abridged:
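Potency and efficacy derived from kinetic FLIPR Ca²⁺-flux fluorescence, recorded 3 min after compound addition in Hanks buffer following a 10 s baseline.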
Molecule `Clc1cncc(-c2ccnc(NC3=NC[C@@]4(CN5CCC4CC5)O3)c2)c1` [Example 297, (R)—N-(5-Chloro-3,4′-bipyridin-2′-yl)-4H-1′-azaspiro[oxazole-5,3′-bicyclo[2.2.2]octan]-2-amine] showed a concentration giving a half-maximal response (EC50) of 35 nM.

Take `COc1ccc(-c2ccnc(NC3=NC[C@@]4(CN5CCC4CC5)O3)c2)cn1` [Example 298, (R)—N-(6-Methoxy-3,4′-bipyridin-2′-yl)-4H-1′-azaspiro[oxazole-5,3′-bicyclo[2.2.2]octan]-2-amine]: the EC50 amounted to 25 nM. The EC50 values of the last two molecules are within 1.5-fold of each other.

Regarding `c1ccc(-c2ccnc(NC3=NC[C@@]4(CN5CCC4CC5)O3)c2)cc1` [Example 302, (R)—N-(4-Phenylpyridin-2-yl)-4H-1′-azaspiro[oxazole-5,3′-bicyclo[2.2.2]octan]-2-amine], the EC50 turned out to be 9 nM.

`Cc1nc(NC2=NC[C@@]3(CN4CCC3CC4)O2)c(Cl)cc1Cl` [Example 308, (R)—N-(3,5-Dichloro-6-methylpyridin-2-yl)-4H-1′-azaspiro[oxazole-5,3′-bicyclo[2.2.2]octan]-2-amine]: a half-maximal response (EC50) required 59 nM.

Staying with this assay, now noted: FLIPR α7 activity rating (EC50, nM), Table 1; HEK 293 cells, agonist Ca2+ flux.
`c1cc2nc(NC3=NC[C@@]4(CN5CCC4CC5)O3)ccc2cn1` [Example 277, (R)—N-(1,6-Naphthyridin-2-yl)-4H-1′-azaspiro[oxazole-5,3′-bicyclo[2.2.2]octan]-2-amine] gave a concentration for a half-maximal effect (EC50) of less than 100 nM.

Molecule `Clc1cc(Cl)c2cnc(NC3=NC[C@@]4(CN5CCC4CC5)O3)cc2c1` [Example 279, (R)—N-(6,8-Dichloroisoquinolin-3-yl)-4H-1′-azaspiro[oxazole-5,3′-bicyclo[2.2.2]octan]-2-amine] came in with a half-maximal effective concentration (EC50) of 100 to 1000 nM.

Turning to `Clc1ccc2cnc(NC3=NC[C@@]4(CN5CCC4CC5)O3)cc2c1Cl` [Example 281, (R)—N-(5,6-Dichloroisoquinolin-3-yl)-4H-1′-azaspiro[oxazole-5,3′-bicyclo[2.2.2]octan]-2-amine], the EC50 is less than 100 nM.

As to `Clc1ccnc(NC2=NC[C@@]3(CN4CCC3CC4)O2)c1Cl` [Example 282, (R)—N-(3,4-Dichloropyridin-2-yl)-4H-1′-azaspiro[oxazole-5,3′-bicyclo[2.2.2]octan]-2-amine], the EC50 was 100 to 1000 nM.

With `Clc1cccnc1NC1=NC[C@@]2(CN3CCC2CC3)O1` [Example 283, (R)—N-(3-Chloropyridin-2-yl)-4H-1′-azaspiro[oxazole-5,3′-bicyclo[2.2.2]octan]-2-amine], the EC50 is 100 to 1000 nM.

On to `Fc1cc(Cl)cnc1NC1=NC[C@@]2(CN3CCC2CC3)O1` [Example 284, (R)—N-(5-Chloro-3-fluoropyridin-2-yl)-4H-1′-azaspiro[oxazole-5,3′-bicyclo[2.2.2]octan]-2-amine], for which the EC50 was less than 100 nM.

`Clc1cccc(NC2=NC[C@@]3(CN4CCC3CC4)O2)n1` [Example 285, (R)—N-(6-Chloropyridin-2-yl)-4H-1′-azaspiro[oxazole-5,3′-bicyclo[2.2.2]octan]-2-amine]: the EC50 was 100 to 1000 nM.

In turn, `Clc1cc(Cl)nc(NC2=NC[C@@]3(CN4CCC3CC4)O2)c1` [Example 286, (R)—N-(4,6-Dichloropyridin-2-yl)-4H-1′-azaspiro[oxazole-5,3′-bicyclo[2.2.2]octan]-2-amine] registered a half-maximal effective concentration (EC50) of 100 to 1000 nM.

In the case of `COc1ncccc1-c1ccnc(NC2=NC[C@@]3(CN4CCC3CC4)O2)c1` [Example 287, (R)—N-(2-methoxy-3,4′-bipyridin-2′-yl)-4H-1′-azaspiro[oxazole-5,3′-bicyclo[2.2.2]octan]-2-amine], the half-maximal effective concentration (EC50) fell in the range of 100 to 1000 nM.

Regarding `c1ccc2oc(NC3=NC[C@@]4(CN5CCC4CC5)O3)nc2c1` [Example 288, (R)—N-(Benzo[d]oxazol-2-yl)-4H-1′-azaspiro[oxazole-5,3′-bicyclo[2.2.2]octan]-2-amine], the EC50 is less than 100 nM.

With `Clc1ccc2oc(NC3=NC[C@@]4(CN5CCC4CC5)O3)nc2c1` [Example 289, (R)—N-(5-Chlorobenzo[d]oxazol-2-yl)-4H-1′-azaspiro[oxazole-5,3′-bicyclo[2.2.2]octan]-2-amine], the EC50 is less than 100 nM.

For `c1cnc2nc(NC3=NC[C@@]4(CN5CCC4CC5)O3)oc2c1` [Example 290, (R)—N-(Oxazolo[4,5-b]pyridin-2-yl)-4H-1′-azaspiro[oxazole-5,3′-bicyclo[2.2.2]octan]-2-amine], the EC50 is less than 100 nM.

`Cc1ccc2cnc(NC3=NC[C@@]4(CN5CCC4CC5)O3)cc2c1` [Example 291, (R)—N-(6-Methylisoquinolin-3-yl)-4H-1′-azaspiro[oxazole-5,3′-bicyclo[2.2.2]octan]-2-amine] gave an EC50 of less than 100 nM.

Turning to `Brc1ccc2cnc(NC3=NC[C@@]4(CN5CCC4CC5)O3)cc2c1` [Example 292, (R)—N-(6-Bromoisoquinolin-3-yl)-4H-1′-azaspiro[oxazole-5,3′-bicyclo[2.2.2]octan]-2-amine], the EC50 is less than 100 nM.

Take `Brc1ccc2cc(NC3=NC[C@@]4(CN5CCC4CC5)O3)ncc2c1` [Example 293, (R)—N-(7-Bromoisoquinolin-3-yl)-4H-1′-azaspiro[oxazole-5,3′-bicyclo[2.2.2]octan]-2-amine]: the EC50 was in the range of 100 to 1000 nM.

Turning to `Brc1cccc2cnc(NC3=NC[C@@]4(CN5CCC4CC5)O3)cc12` [Example 294, (R)—N-(5-bromoisoquinolin-3-yl)-4H-1′-azaspiro[oxazole-5,3′-bicyclo[2.2.2]octan]-2-amine], the concentration for a half-maximal effect (EC50) is less than 100 nM.

Turning to `Cc1cc(C)c2cnc(NC3=NC[C@@]4(CN5CCC4CC5)O3)cc2c1` [Example 295, (2R)—N-(6,8-Dimethyl-3-isoquinolinyl)-4′H-spiro[4-azabicyclo[2.2.2]octane-2,5′-[1,3]oxazol]-2′-amine], the EC50 lay in the range of 100 to 1000 nM.

Still in this assay, the particulars now being: FLIPR α7 activity rating (EC50, nM), Table Ib; HEK 293 cells, agonist Ca2+ flux.
In turn, `c1cncc(-c2ccnc(NC3=NC[C@@]4(CN5CCC4CC5)O3)c2)c1` [Example 296, (R)—N-(3,4′-Bipyridin-2′-yl)-4H-1′-azaspiro[oxazole-5,3′-bicyclo[2.2.2]octan]-2-amine] yielded a half-maximal effective concentration (EC50) of less than 100 nM.

Molecule `Clc1cncc(-c2ccnc(NC3=NC[C@@]4(CN5CCC4CC5)O3)c2)c1` [Example 297, (R)—N-(5-Chloro-3,4′-bipyridin-2′-yl)-4H-1′-azaspiro[oxazole-5,3′-bicyclo[2.2.2]octan]-2-amine] had an EC50 of less than 100 nM.

In the case of `COc1ccc(-c2ccnc(NC3=NC[C@@]4(CN5CCC4CC5)O3)c2)cn1` [Example 298, (R)—N-(6-Methoxy-3,4′-bipyridin-2′-yl)-4H-1′-azaspiro[oxazole-5,3′-bicyclo[2.2.2]octan]-2-amine], the EC50 was less than 100 nM.

`Fc1ccc(-c2ccnc(NC3=NC[C@@]4(CN5CCC4CC5)O3)c2)cn1` [Example 299, (R)—N-(6-Fluoro-3,4′-bipyridin-2′-yl)-4H-1′-azaspiro[oxazole-5,3′-bicyclo[2.2.2]octan]-2-amine] yielded a concentration giving a half-maximal response (EC50) of less than 100 nM.

`Fc1ccc(-c2ccnc(NC3=NC[C@@]4(CN5CCC4CC5)O3)c2)cc1Cl` [Example 300, (R)—N-(4-(3-Chloro-4-fluoro-phenyl)pyridin-2-yl)-4H-1′-azaspiro[oxazole-5,3′-bicyclo[2.2.2]octan]-2-amine] had a concentration for a half-maximal effect (EC50) of less than 100 nM.

In turn, `Cc1cccc(-c2ccnc(NC3=NC[C@@]4(CN5CCC4CC5)O3)c2)c1` [Example 301, (R)—N-(4-m-Tolylpyridin-2-yl)-4H-1′-azaspiro[oxazole-5,3′-bicyclo[2.2.2]octan]-2-amine] showed a concentration giving a half-maximal response (EC50) of less than 100 nM.

As to `c1ccc(-c2ccnc(NC3=NC[C@@]4(CN5CCC4CC5)O3)c2)cc1` [Example 302, (R)—N-(4-Phenylpyridin-2-yl)-4H-1′-azaspiro[oxazole-5,3′-bicyclo[2.2.2]octan]-2-amine], the concentration giving a half-maximal response (EC50) is less than 100 nM.

The molecule `Cn1cc(-c2ccnc(NC3=NC[C@@]4(CN5CCC4CC5)O3)c2)cn1` [Example 303, (R)—N-(4-(1-Methyl-1H-pyrazol-4-yl)pyridin-2-yl)-4H-1′-azaspiro[oxazole-5,3′-bicyclo[2.2.2]octan]-2-amine] gave a half-maximal effective concentration (EC50) of less than 100 nM.

`c1cc(-c2cscn2)cc(NC2=NC[C@@]3(CN4CCC3CC4)O2)n1` [Example 304, (R)—N-(4-(Thiazol-4-yl)pyridin-2-yl)-4H-1′-azaspiro[oxazole-5,3′-bicyclo[2.2.2]octan]-2-amine] yielded a concentration for a half-maximal effect (EC50) of less than 100 nM.

Molecule `O=[N+]([O-])c1ccc(-c2ccnc(NC3=NC[C@@]4(CN5CCC4CC5)O3)c2)cn1` [Example 305, (R)—N-(6-Nitro-3,4′-bipyridin-2′-yl)-4H-1′-azaspiro[oxazole-5,3′-bicyclo[2.2.2]octan]-2-amine] came in with a concentration giving a half-maximal response (EC50) of less than 100 nM.

Regarding `Cc1nc(NC2=NC[C@@]3(CN4CCC3CC4)O2)ccc1Cl` [Example 306, (R)—N-(5-Chloro-6-methylpyridin-2-yl)-4H-1′-azaspiro[oxazole-5,3′-bicyclo[2.2.2]octan]-2-amine], the concentration giving a half-maximal response (EC50) was less than 100 nM.

Turning to `Cc1cc(NC2=NC[C@@]3(CN4CCC3CC4)O2)ncc1F` [Example 307, (R)—N-(5-Fluoro-4-methylpyridin-2-yl)-4H-1′-azaspiro[oxazole-5,3′-bicyclo[2.2.2]octan]-2-amine], the EC50 was less than 100 nM.

In turn, `Cc1nc(NC2=NC[C@@]3(CN4CCC3CC4)O2)c(Cl)cc1Cl` [Example 308, (R)—N-(3,5-Dichloro-6-methylpyridin-2-yl)-4H-1′-azaspiro[oxazole-5,3′-bicyclo[2.2.2]octan]-2-amine] displayed an EC50 of less than 100 nM.

In turn, `Cc1cnc(NC2=NC[C@@]3(CN4CCC3CC4)O2)cc1C` [Example 309, (R)—N-(4,5-Dimethylpyridin-2-yl)-4H-1′-azaspiro[oxazole-5,3′-bicyclo[2.2.2]octan]-2-amine] registered an EC50 of less than 100 nM.

Consider `COc1ccc(NC2=NC[C@@]3(CN4CCC3CC4)O2)nc1` [Example 310, (R)—N-(5-Methoxypyridin-2-yl)-4H-1′-azaspiro[oxazole-5,3′-bicyclo[2.2.2]octan]-2-amine], for which the 50% effective concentration (EC50) was less than 100 nM.

The molecule `Clc1c(NC2=NC[C@@]3(CN4CCC3CC4)O2)ncc2ccccc12` [Example 311, (R)—N-(4-Chloroisoquinolin-3-yl)-4H-1′-azaspiro[oxazole-5,3′-bicyclo[2.2.2]octan]-2-amine] gave a half-maximal effective concentration (EC50) of less than 100 nM.

Consider `Fc1c(Cl)ccc2cc(NC3=NC[C@@]4(CN5CCC4CC5)O3)ncc12` [Example 312, (R)—N-(7-Chloro-8-fluoroisoquinolin-3-yl)-4H-1′-azaspiro[oxazole-5,3′-bicyclo[2.2.2]octan]-2-amine], for which the EC50 is less than 100 nM.

For the molecule `Cc1nc(NC2=NC[C@@]3(CN4CCC3CC4)O2)cc2ccccc12` [Example 313, (R)—N-(1-Methylisoquinolin-3-yl)-4H-1′-azaspiro[oxazole-5,3′-bicyclo[2.2.2]octan]-2-amine], the EC50 was less than 100 nM.

The molecule `Fc1ccc(-c2cc(NC3=NC[C@@]4(CN5CCC4CC5)O3)ncn2)cc1` [Example 314, (R)—N-(6-(4-Fluorophenyl)pyrimidin-4-yl)-4H-1′-azaspiro[oxazole-5,3′-bicyclo[2.2.2]octan]-2-amine] returned a concentration giving a half-maximal response (EC50) of less than 100 nM.
